# Test results as given in patent US6482851B1, “Synthesis of dysidiolide and uses thereof” (Sloan-Kettering Institute for Cancer Research, priority 1998, dated 2002).
# Key:
# [1] = test system: MCF7 human breast cancer cells; experiment: BrdU pulse-chase S phase progression; format: cell-based
# Experimental: Effect of 10 μM dysidiolide on cell cycle progression of S-phase MCF7 cells (BrdU-positive). MCF7 cultures were pulse-labeled with 10 μM BrdU for 30 min. Cultures were washed extensively with phosphate-buffered saline (PBS) solution and fresh media was added, supplemented or not with 10 μM dysidiolide. The final DMSO concentration of control and drug cultures was 0.05%. Cells were harvested at different times after the BrdU pulse and cells were stained for DNA content with propidium iodide, and for BrdU, with a monoclonal anti-BrdU antibody coupled to fluorescein. The progression of this group of cells through the cell cycle was followed by dual wavelength flow cytometry.
# Effect of 50 μM dysidiolide on cell cycle progression of S-phase MCF7 cells. MCF7 cells were pulse-labeled for 30 min with BrdU, and chased for 24 hr in the presence or absence of 50 μM dysidiolide. BrdU versus DNA content plots are shown for cell cultures harvested just after the pulse (time 0, “0”), and after the chase with (“24+”) or without drug (“24−”)
# To further analyze the cell cycle effects induced by dysidiolide, the effects of the drug on S phase progression were tested. For this purpose, a subset of cells was pulse-labeled with the thymidine analog, 5-bromodeoxyuridine (BrdU) for 30 min, and chased in the presence or absence of dysidiolide. The progression of this group of cells through the cell cycle was followed by flow cytometry, by analyzing the intensity of BrdU labeling and DNA content at two different wavelengths: red for propidium iodide stain (DNA content) and green for the detection of anti-BrdU antibodies coupled to fluorescein (Becton-Dickinson Immunocytometric Systems, San Jose, Calif.). The first experiment was conducted on MCF7 human breast cancer cells chased for varying time periods after a 30 min BrdU pulse, with or without 10 μM dysidiolide. After a 24 hr chase in the presence of the drug, fewer cells had reached G1 (FIG. 6). However, the effect was modest in intensity (approximately 45% less cells reached G1 in treated samples, compared with untreated controls) […]
# TSU-Pr1 cells = experiment: BrdU pulse-label FACS of TSU-Pr1 cells; format: cell-based, human; conditions: 3.33 μM, 24 hours
# Experimental: (§1) TSU-Pr1 cells were treated for 24 hours with either DMSO or 3.33 μM dysidiolide. Cells were pulse-labeled for 30 min with bromodeoxyuridine (BrdU) and analyzed by FACS. The R@ window contains BRDU-positive, S-phase cells. Consistent with the proposed inhibitory effect of dysidiolide on the positive cell cycle regulator Cdc25. the drug inhibited the activity of cyclin-dependent kinases (Cdk). Cdk4, 6 and 2 were immunoprecipitated from DMSO- or drug-treated TSU-Pr1 cell cultures. Activity was examined in vitro kinase assays. The activity of the three Cdks was inhibited in drug-treated cells, as early as 3 hours in drug.
# Cdk2 [2] = experiment: Cdk2 kinase activity on immunoprecipitates from treated MCF7 cells; format: cell-based, human
# Experimental: Effect of dysidiolide on the activity of Cdk2 and on the steady-state levels of Cdc25A and Cdc25C. MCF7 cells were treated for 2 or 4 hr with 0, 2 or 10 μM dysidiolide. A) The kinase activity of Cdk2 was assayed on immunoprecipitates using histone H1 as exogenous substrate. B) The steady-state levels of Cdc25 A and C were analyzed in total cell lysates with specific antibodies (Santa Cruz Biotechnology's sc097 and sc327 antibodies were used for detection of Cdc25 A and C, respectively).
# Effect of a 24 hr treatment with 50 μM dysidiolide on the kinase activity of Cdk4, Cdk2 and Cdc2. Cdk were immunoprecipitated from MCF7 cell lysates obtained from cultures treated or not with dysidiolide for 24 hr. Histone H1 was used as substrate for Cdk2 and Cdc2, whereas GST-Rb was the substrate for Cdk4.
# To further characterize the effects of dysidiolide on cell cycle control, experiments were conducted at the molecular level. As Cdc25s (A, B and C) are positive regulators of cyclin-dependent kinases (Cdk) (reviewed in Draetta and Eckstein, BBA 1332: M53-M63, 1997) inhibition of Cdc25 is expected to result in inhibition of Cdk activity. MCF7 cells were treated with 2 or 10 μM dysidiolide or with DMSO (controls) for 2 or 4 hr. Cell extracts were used to measure the steady-state levels of Cdc25 A and C, and Cdk activity. […]
# Cdk2 [3] = experiment: in vitro kinase assay of Cdk2 immunoprecipitated from treated TSU-Pr1 cells; format: cell-based, human; conditions: 3.33 μM, TSU-Pr1, as early as 3 hours in drug
# Experimental: as §1
# In vitro kinase assays of Cdk. TSU-Pr1 cells were treated with 3.33 μM dysidiolide for 0-24 hours. Samples were collected at various times and the activity of Cdk4, 6 and 2 was determined. Cdks were immunoprecipitated with specific antibodies and incubated with radiolabeled ATP plus either histH1 (for Cdk2) or GST-Rb (for Cdk4 and 6). Reactions were separated on SDS-polyacrylamide gels and the amount of phosphorylated product was determined by radiometric analysis.
compound,measurement,setting,value
C=C(C)CCC[C@@]1(C)CCC[C@H]2C1=CC[C@H](C)[C@]2(C)C[C@H](O)C1=CC(=O)O[C@@H]1O (racemic) [dysidiolide],less cells reached G1 compared with untreated controls,"[1]; 10 μM, 24 hr chase after 30 min BrdU pulse",approximately 45%
same,cell cycle progression of BrdU-positive cells onto the next G1 phase,"[1]; 50 μM, 24 hr chase",prevented cell cycle progression
same,"cells with intermediate DNA content (S phase), forced fit","[1]; 50 μM, 24 hr chase, BrdU-positive cells",approximately 90%
same,cell cycle arrest,TSU-Pr1 cells,induces G1 arrest
same,Cdk2 protein kinase activity,"Cdk2 [2]; 50 μM, 24 hr",inhibition
same,Cdk2 activity,"Cdk2 [2]; 2 or 10 μM, 2 or 4 hr",no significant changes
same,Cdk2 activity,Cdk2 [3],inhibited
